Legend:
Experiment in all cases: NCI-60 one-dose screening
Format in all cases: cell-based
PC-3 = details: Homo sapiens, PC-3, Prostate Cancer, read-out: GI (%)
Method: (§1) Compounds 5a–c and 6a–o were tested using standard NCI protocols for in vitro activity at the National Cancer Institute (NCI, Bethesda, Maryland, USA), wherein compounds were tested using one single concentration of 10 μM against 60 cell lines of nine different cancer types. […] Excellent activity was observed against a single NSCLC cell line, EKVX, for compounds 5a–c (GIs = 77–86%, Table 1) with no observed activity for indoles with substituted vanillin 6a–o.
(§2) Anticancer activity was tested against 60 cancer cell lines at the NCI, Bethesda, USA. The screening process was done with a single dosage of 10 μM according to NCI protocols published on the NCI website https://dtp.cancer.gov/discovery_development/nci-60/methodology.htm.

OVCAR-4 = details: Homo sapiens, OVCAR-4, 10 μM; OVCAR-4, Ovarian Cancer; read-out: GI (%)
Method: as §1, §2

A498 = details: Homo sapiens, A498, Renal Cancer, read-out: GI (%)
Method: as §1, §2

CCRF-CEM = details: Homo sapiens, Leukemias, read-out: GI (%)
Method: as §1, §2

HT29 = details: Homo sapiens, HT-29, HT29, Colon Cancer, read-out: GI (%)
Method: as §1, §2

HS 578T = details: Homo sapiens, Breast Cancer, read-out: GI (%)
Method: as §1, §2

NCI/ADR-RES = details: Homo sapiens, Ovarian Cancer, read-out: GI (%)
Method: as §1, §2

SF-268 = details: Homo sapiens, SF-268, CNS Cancer, read-out: GI (%)
Method: as §1, §2

OVCAR-5 = details: Homo sapiens, OVCAR-5, Ovarian Cancer, read-out: GI (%)
Method: as §1, §2

OVCAR-8 = details: Homo sapiens, OVCAR-8, Ovarian Cancer, read-out: GI (%)
Method: as §1, §2

786-0 = details: Homo sapiens, 786-0, Renal Cancer, read-out: GI (%)
Method: as §1, §2

NCI-H460 = details: Homo sapiens, NCI-H460, Non-Small Cell Lung Cancer, read-out: GI (%)
Method: as §1, §2

OVCAR-3 = details: Homo sapiens, OVCAR-3, 10 μM; OVCAR-3, Ovarian Cancer; read-out: GI (%)
Method: as §1, §2

RPMI-8226 = details: Homo sapiens, RPMI-8226, Leukemias, read-out: GI (%)
Method: as §1, §2

HCC-2998 = details: Homo sapiens, HCC-2998, Colon Cancer, read-out: GI (%)
Method: as §1, §2

ACHN = details: Homo sapiens, Renal Cancer, read-out: GI (%)
Method: as §1, §2

COLO 205 = details: Homo sapiens, COLO 205, Colon Cancer, read-out: GI (%)
Method: as §1, §2

HL-60(TB) = details: Homo sapiens, Leukemias, read-out: GI (%)
Method: as §1, §2

TK-10 = details: Homo sapiens, TK-10, Renal Cancer, read-out: GI (%)
Method: as §1, §2

SK-MEL-2 = details: Homo sapiens, SK-MEL-2, Melanoma, read-out: GI (%)
Method: as §1, §2

MDA-MB-435 = details: Homo sapiens, MDA-MB-435, Melanoma, read-out: GI (%)
Method: as §1, §2

NCI-H23 = details: Homo sapiens, NCI-H23, Non-Small Cell Lung Cancer, read-out: GI (%)
Method: as §1, §2

HOP-92 = details: Homo sapiens, HOP-92, Non-Small Cell Lung Cancer, read-out: GI (%)
Method: as §1, §2

UO-31 = details: Homo sapiens, UO-31, Renal Cancer, read-out: GI (%)
Method: as §1, §2

HCT-15 = details: Homo sapiens, HCT-15, Colon Cancer, read-out: GI (%)
Method: as §1, §2

A549/ATCC = details: Homo sapiens, Non-Small Cell Lung Cancer, read-out: GI (%)
Method: as §1, §2

SF-539 = details: Homo sapiens, SF-539, CNS Cancer, read-out: GI (%)
Method: as §1, §2

SNB-19 = details: Homo sapiens, SNB-19, CNS Cancer, read-out: GI (%)
Method: as §1, §2

MCF7 = details: Homo sapiens, MCF7, 10 μM; MCF7, Breast Cancer; read-out: GI (%)
Method: as §1, §2

SR = details: Homo sapiens, Leukemias, read-out: GI (%)
Method: as §1, §2

LOX IMVI = details: Homo sapiens, Melanoma, read-out: GI (%)
Method: as §1, §2

KM12 = details: Homo sapiens, KM12, Colon Cancer, read-out: GI (%)
Method: as §1, §2

NCI-H322M = details: Homo sapiens, Non-Small Cell Lung Cancer, read-out: GI (%)
Method: as §1, §2

EKVX = details: Homo sapiens, Non-Small Cell Lung Cancer, read-out: GI (%)
Method: as §1, §2

MOLT-4 = details: Homo sapiens, MOLT-4, Leukemias, read-out: GI (%)
Method: as §1, §2

U251 = details: Homo sapiens, U-251, U251, CNS Cancer, read-out: GI (%)
Method: as §1, §2

| Compound | inhibition at 10 µM (PC-3) | inhibition at 10 µM (OVCAR-4) | inhibition at 10 µM (A498) | inhibition at 10 µM (CCRF-CEM) | inhibition at 10 µM (HT29) | inhibition at 10 µM (HS 578T) | inhibition at 10 µM (NCI/ADR-RES) | inhibition at 10 µM (SF-268) | inhibition at 10 µM (OVCAR-5) | inhibition at 10 µM (OVCAR-8) | inhibition at 10 µM (786-0) | inhibition at 10 µM (NCI-H460) | inhibition at 10 µM (OVCAR-3) | inhibition at 10 µM (RPMI-8226) | inhibition at 10 µM (HCC-2998) | inhibition at 10 µM (ACHN) | inhibition at 10 µM (COLO 205) | inhibition at 10 µM (HL-60(TB)) | inhibition at 10 µM (TK-10) | inhibition at 10 µM (SK-MEL-2) | also measured |
| --- | --- | --- | --- | --- | --- | --- | --- | --- | --- | --- | --- | --- | --- | --- | --- | --- | --- | --- | --- | --- | --- |
| COc1cc(/C=C2/C(=O)Nc3cc(Cl)ccc32)ccc1OCc1ccccn1 [6o] | 2.25% | 3.45% | -7.62% | -8.83% | -15.4% | -1.2% | -7.14% | -6.37% | 2.11% | -2.7% | -11.2% | -3.23% | -15.5% | -0.91% | -11.7% | 5.07% | -18.8% | -17.3% | -69.3% | -8.06% | inhibition at 10 µM (MDA-MB-435): -6.9%; inhibition at 10 µM (NCI-H23): 4.55%; inhibition at 10 µM (HOP-92): -5.39%; inhibition at 10 µM (UO-31): 16.6%; inhibition at 10 µM (HCT-15): 7.58%; inhibition at 10 µM (A549/ATCC): -15.6%; inhibition at 10 µM (SF-539): 4.76%; inhibition at 10 µM (SNB-19): -1.66%; inhibition at 10 µM (MCF7): 27.7%; inhibition at 10 µM (SR): 6.43%; inhibition at 10 µM (LOX IMVI): 2.38%; inhibition at 10 µM (KM12): 2.85%; inhibition at 10 µM (NCI-H322M): 0.51%; inhibition at 10 µM (EKVX): 25.3%; inhibition at 10 µM (MOLT-4): 3.45%; inhibition at 10 µM (U251): -7.72% |
| COc1cc(/C=C2/C(=O)Nc3cc(Cl)ccc32)ccc1O [5c] | 21.6% | 25.4% | 11.1% | 17% | -0.03% | 50.9% | 11.5% | 21.8% | -7.45% | 13% | 2.08% | 8.53% | 25.8% | 17.9% | 0.25% | 23.6% | -7.08% | 13.9% | -60.3% | 7.35% | inhibition at 10 µM (MDA-MB-435): 17.8%; inhibition at 10 µM (NCI-H23): 11.6%; inhibition at 10 µM (HOP-92): 24.8%; inhibition at 10 µM (UO-31): 39.5%; inhibition at 10 µM (HCT-15): 34.8%; inhibition at 10 µM (A549/ATCC): 5.44%; inhibition at 10 µM (SF-539): 39.8%; inhibition at 10 µM (SNB-19): 24.6%; inhibition at 10 µM (MCF7): 54.4%; inhibition at 10 µM (SR): 43.3%; inhibition at 10 µM (LOX IMVI): 22.7%; inhibition at 10 µM (KM12): 6.51%; inhibition at 10 µM (NCI-H322M): 15.7%; inhibition at 10 µM (EKVX): 77.2%; inhibition at 10 µM (MOLT-4): 27.9%; inhibition at 10 µM (U251): 33.5% |
| COc1cc(C=C2C(=O)Nc3ccccc32)ccc1OCc1ccccc1 (mixture of isomers) [6a] | 5.85% | 3.22% | -0.19% | 9.45% | -2.25% | -7.03% | 1.52% | -1% | -2.62% | -0.93% | -0.73% | 20.2% | 11% | 1% | -19.5% | 6.95% | -17.8% | -10.5% | -40.3% | -10.6% | inhibition at 10 µM (MDA-MB-435): -3.92%; inhibition at 10 µM (NCI-H23): -2.84%; inhibition at 10 µM (HOP-92): 4.67%; inhibition at 10 µM (UO-31): 25.3%; inhibition at 10 µM (HCT-15): 12.2%; inhibition at 10 µM (A549/ATCC): -9.96%; inhibition at 10 µM (SF-539): 0.76%; inhibition at 10 µM (SNB-19): 0.53%; inhibition at 10 µM (MCF7): 35.7%; inhibition at 10 µM (SR): 14.6%; inhibition at 10 µM (LOX IMVI): 7.61%; inhibition at 10 µM (KM12): -0.02%; inhibition at 10 µM (NCI-H322M): 5.18%; inhibition at 10 µM (EKVX): 8.21%; inhibition at 10 µM (MOLT-4): 1.73%; inhibition at 10 µM (U251): -6.68% |
| COc1ccc(COc2ccc(/C=C3/C(=O)Nc4ccccc43)cc2OC)cc1 [6d] | 4.22% | 0.17% | -10.3% | -3.81% | -7.81% | -5.29% | -6.16% | -3% | 0.08% | -0.59% | -4.67% | -2.81% | -14.7% | -4.4% | -2.21% | 7.61% | -22.9% | -14.7% | -13.4% | -8.22% | inhibition at 10 µM (MDA-MB-435): -6.21%; inhibition at 10 µM (NCI-H23): -2.85%; inhibition at 10 µM (HOP-92): -1%; inhibition at 10 µM (UO-31): 19.6%; inhibition at 10 µM (HCT-15): -4.57%; inhibition at 10 µM (A549/ATCC): -9.19%; inhibition at 10 µM (SF-539): 4.08%; inhibition at 10 µM (SNB-19): 2.66%; inhibition at 10 µM (MCF7): 6%; inhibition at 10 µM (SR): -1.92%; inhibition at 10 µM (LOX IMVI): 3.43%; inhibition at 10 µM (KM12): -3.98%; inhibition at 10 µM (NCI-H322M): -5.76%; inhibition at 10 µM (EKVX): 0.23%; inhibition at 10 µM (MOLT-4): -1.85%; inhibition at 10 µM (U251): -9.05% |
| COc1cc(C=C2C(=O)Nc3ccc(Cl)cc32)ccc1OCc1ccc(Cl)cc1 (mixture of isomers) [6g] | 22.3% | 74 to 97% | 13.5% | 18.1% | 6.96% | 2.99% | 16.1% | 20% | 3.04% | 8.51% | 4.52% | 50.5% | 74 to 97% | -3.63% | -4.18% | 71.9% | -7.05% | -1.67% | -56% | -8.12% | inhibition at 10 µM (MDA-MB-435): -1.14%; inhibition at 10 µM (NCI-H23): 20.2%; inhibition at 10 µM (HOP-92): 27.8%; inhibition at 10 µM (UO-31): 37.9%; inhibition at 10 µM (HCT-15): 13.9%; inhibition at 10 µM (A549/ATCC): 7.48%; inhibition at 10 µM (SF-539): 10.7%; inhibition at 10 µM (SNB-19): 12.8%; inhibition at 10 µM (MCF7): 54.4%; inhibition at 10 µM (SR): 41.6%; inhibition at 10 µM (LOX IMVI): 46.1%; inhibition at 10 µM (KM12): 3.49%; inhibition at 10 µM (NCI-H322M): 22.9%; inhibition at 10 µM (EKVX): 27.5%; inhibition at 10 µM (MOLT-4): 8.95%; inhibition at 10 µM (U251): 52.1% |

Reference: PMC9948168, “Vanillin-Based Indolin-2-one Derivative Bearing a Pyridyl Moiety as a Promising Anti-Breast Cancer Agent via Anti-Estrogenic Activity” (ACS Omega, 2023)
